# From ChEMBL document CHEMBL1201862, “PubChem BioAssay data set” (2004)
# The source made the active and inactive calls.
# Tests used:
# [1] = target: T1, Short transient receptor potential channel 4 (Mus musculus, UniProt Q9QUQ5); experiment: mouse TRPC4 channel activators, dose response, cell-based, HEK293 TRPC4/mu-opioid, Fluo-4 calcium (AID 434937); assay type: functional
# T1 sequence (Q9QUQ5 whole entry): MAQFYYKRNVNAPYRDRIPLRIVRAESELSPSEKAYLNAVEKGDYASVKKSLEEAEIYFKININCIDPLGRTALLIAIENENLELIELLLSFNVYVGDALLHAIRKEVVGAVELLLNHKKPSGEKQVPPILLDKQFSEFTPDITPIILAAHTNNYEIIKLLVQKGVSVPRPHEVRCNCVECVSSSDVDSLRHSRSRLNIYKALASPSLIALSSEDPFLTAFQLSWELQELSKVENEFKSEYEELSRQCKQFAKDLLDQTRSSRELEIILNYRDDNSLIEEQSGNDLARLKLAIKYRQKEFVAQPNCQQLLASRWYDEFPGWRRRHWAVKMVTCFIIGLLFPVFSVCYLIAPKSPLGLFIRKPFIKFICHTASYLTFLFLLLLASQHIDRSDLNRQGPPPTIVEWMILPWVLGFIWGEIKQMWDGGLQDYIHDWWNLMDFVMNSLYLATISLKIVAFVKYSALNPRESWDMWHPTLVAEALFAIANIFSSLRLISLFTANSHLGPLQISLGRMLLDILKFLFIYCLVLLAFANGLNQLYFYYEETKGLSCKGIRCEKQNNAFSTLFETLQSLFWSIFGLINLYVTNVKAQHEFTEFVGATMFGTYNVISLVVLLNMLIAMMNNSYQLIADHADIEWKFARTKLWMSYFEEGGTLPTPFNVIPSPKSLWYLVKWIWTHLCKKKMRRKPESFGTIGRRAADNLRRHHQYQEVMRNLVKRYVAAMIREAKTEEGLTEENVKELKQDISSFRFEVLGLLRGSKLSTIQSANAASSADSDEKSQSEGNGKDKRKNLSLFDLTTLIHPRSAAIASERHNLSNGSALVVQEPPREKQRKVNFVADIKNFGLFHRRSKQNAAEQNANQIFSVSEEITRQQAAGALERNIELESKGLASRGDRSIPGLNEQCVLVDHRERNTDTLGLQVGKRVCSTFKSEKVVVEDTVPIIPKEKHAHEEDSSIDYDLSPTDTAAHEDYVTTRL
# [2] = target: Induced myeloid leukemia cell differentiation protein Mcl-1 (Homo sapiens, UniProt Q07820); assay type: functional
# [3] = target: T2, Carboxy-terminal domain RNA polymerase II polypeptide A small phosphatase 1 (Homo sapiens, UniProt Q9GZU7); experiment: inhibitors of CTDSP1, concentration-response testing, biochemical assay, absorbance-based, actives from ultra-high-throughput screening (AID 540297); assay type: functional
# T2 sequence (Q9GZU7 whole entry): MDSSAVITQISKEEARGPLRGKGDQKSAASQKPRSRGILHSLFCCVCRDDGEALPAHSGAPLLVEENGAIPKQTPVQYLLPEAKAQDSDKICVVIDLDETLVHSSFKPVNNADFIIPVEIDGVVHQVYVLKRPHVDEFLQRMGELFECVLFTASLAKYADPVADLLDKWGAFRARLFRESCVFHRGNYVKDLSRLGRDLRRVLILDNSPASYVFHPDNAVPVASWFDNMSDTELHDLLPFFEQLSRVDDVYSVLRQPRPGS
# Vero = experiment: cells; assay type: functional; settings: Chlorocebus sabaeus
# [4] = target: T3, Ubiquitin-conjugating enzyme E2 N (Homo sapiens, UniProt P61088); assay type: functional;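 also: Dose-response confirmation in a TR-FRET assay detecting UBC13-driven polyubiquitin chain formation, inhibition measured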
# T3 sequence (P61088 whole entry): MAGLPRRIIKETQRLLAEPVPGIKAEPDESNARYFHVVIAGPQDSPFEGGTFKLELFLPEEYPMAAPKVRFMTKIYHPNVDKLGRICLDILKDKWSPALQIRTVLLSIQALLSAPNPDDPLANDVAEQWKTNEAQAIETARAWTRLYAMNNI
# Cytochrome P450 3A4 = Cytochrome P450 3A4 (Homo sapiens, UniProt P08684); settings: Potency;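 also: confirmatory qHTS run detecting inhibitors and substrates of CYP3A4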
# [5] = test system: Streptococcus sp. 'group A'; experiment: growth inhibition of control SK(-) GAS strain, dose response, counter-screen for streptokinase expression inhibitor project, luminescence, kanamycin, BacTiterGlo, confirmation (AID 1900); assay type: functional, organism-based
# Streptokinase A = target: T4, Streptokinase A (Streptococcus pyogenes serotype M1, UniProt P10520); experiment: S. pyogenes streptokinase expression inhibitors, potency, dose response, plasminogen activation absorbance, OD405 (AID 1914); assay type: functional, Streptococcus pyogenes M1 GAS;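 also: secreted streptokinase activity via plasminogen activation per viability signal from cell pellet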
# T4 sequence (P10520 whole entry): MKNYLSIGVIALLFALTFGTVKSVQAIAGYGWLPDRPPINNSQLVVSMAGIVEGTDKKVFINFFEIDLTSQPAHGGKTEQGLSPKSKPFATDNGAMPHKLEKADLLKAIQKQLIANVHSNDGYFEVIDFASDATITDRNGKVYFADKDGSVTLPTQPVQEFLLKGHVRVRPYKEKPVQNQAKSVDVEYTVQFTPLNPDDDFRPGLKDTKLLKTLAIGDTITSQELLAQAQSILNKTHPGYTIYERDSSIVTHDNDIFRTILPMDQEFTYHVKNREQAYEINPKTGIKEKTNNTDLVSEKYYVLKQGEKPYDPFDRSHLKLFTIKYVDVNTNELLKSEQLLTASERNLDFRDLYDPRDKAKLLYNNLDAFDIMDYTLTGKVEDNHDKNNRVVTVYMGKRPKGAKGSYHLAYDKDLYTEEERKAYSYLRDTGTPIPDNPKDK
# Streptococcus = experiment: Group A Streptococcus viability loss, dose response, counter-screen for streptokinase expression inhibitor project, luminescence, BacTiterGlo (AID 1915); assay type: functional, organism-based;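 also: potency for reduction of bacterial viability or growth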
# BJ [6] = experiment: cytotoxicity toward BJ-TERT-LT-ST fibroblasts, dose response, cell-based, RAS-independent, luminescence (AID 1935); assay type: functional; settings: Homo sapiens;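 also: BJ fibroblasts immortalized with TERT plus LT and ST oncogenes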
# [7] = cytotoxicity toward DRD oncogenic fibroblasts, dose response, cell-based, non-viral oncogenic, luminescence (AID 1934); assay type: functional; settings: Homo sapiens
# BJ [8] = experiment: cytotoxicity toward BJ-TERT fibroblasts, dose response, cell-based, RAS-independent, luminescence (AID 1933); assay type: functional; settings: Homo sapiens
# BJ [9] = experiment: cells; assay type: functional, cell-based; settings: Homo sapiens
# [10] = growth suppression of PTEN-null colon cells, dose response, cell-based, HCT116 PTEN knockout (AID 1047); assay type: functional;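 also: HCT116 colon tumor cells with PTEN knocked out; cells exposed to compound for 60 hours before readout; potency for loss of cell viability measured by luminescence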
# [11] = growth suppression of beta-catenin-knockout colon cells, dose response, cell-based, HCT116, human colon tumor (AID 1045); assay type: functional;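 also: HCT116 colon tumor cells with beta catenin knocked out; cells exposed to compound for 60 hours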
# [12] = cytotoxicity toward NIH3T3 fibroblasts, dose response, counter-screen, cell-based, ATP luminescence, mouse fibroblasts (AID 2010); assay type: functional;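 also: cells exposed to compound for about 90 hours before reading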
# [13] = inhibitors of intracellular T. cruzi replication, confirmation, NIH3T3 host cells, beta-gal luminescence (AID 2044); assay type: functional, cell-based;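 also: intracellular parasites grown in NIH/3T3 mouse fibroblasts as host cells; luminescent beta-galactosidase reporter signal from transgenic T. cruzi replicating inside host cells; inhibitors lower the luminescence signal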
# Fatty acid synthase [14] = target: T5, Fatty acid synthase (Homo sapiens, UniProt P49327); experiment: FAS thioesterase domain inhibitors, dose response, biochemical, endpoint fluorescence intensity, uHTS hits (AID 624327); assay type: functional;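 also: fluorescence from hydrolysis of an O-methyl fluorescein acyl ester substrate by the enzyme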
# Fatty acid synthase [15] = target: T5, Fatty acid synthase; experiment: FAS thioesterase domain inhibitors, dose response, biochemical, kinetic fluorescence intensity (AID 624326); assay type: functional;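 also: rate of fluorescence rise from hydrolysis of a fluorogenic O-methyl fluorescein ester substrate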
# Cytochrome P450 2C19 = Cytochrome P450 2C19 (Homo sapiens, UniProt P33261); experiment: Cytochrome panel assay with activity outcomes. Panel member name: p450-cyp2c19 Compounds with AC50 equal or less than 10 uM are considered active; assay type: functional; settings: read-out: AC50
# Cytochrome P450 2C9 = Cytochrome P450 2C9 (Homo sapiens, UniProt P11712)
# [16] = P. falciparum Dd2 growth inhibitors, dose response, SYBR Green, cherry-picked samples (AID 1159567); assay type: functional, cell-based
# [17] = HEp-2 cell cytotoxicity, dose response, cytotoxicity control for RSV inhibitor project, HTS (AID 2410); assay type: functional; settings: human respiratory syncytial virus
# Sequence of Induced myeloid leukemia cell differentiation protein Mcl-1 (Q07820 whole entry, the tested form may be a part): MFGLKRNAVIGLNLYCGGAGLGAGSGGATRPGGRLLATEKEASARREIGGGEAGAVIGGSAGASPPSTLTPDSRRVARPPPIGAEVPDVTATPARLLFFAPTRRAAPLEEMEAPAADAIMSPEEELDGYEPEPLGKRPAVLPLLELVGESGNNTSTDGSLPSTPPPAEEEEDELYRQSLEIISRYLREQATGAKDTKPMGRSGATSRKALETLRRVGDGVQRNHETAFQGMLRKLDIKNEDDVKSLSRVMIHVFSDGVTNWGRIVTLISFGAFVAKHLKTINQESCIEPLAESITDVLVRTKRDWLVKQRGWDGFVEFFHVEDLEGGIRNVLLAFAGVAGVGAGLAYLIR
# T5 sequence (P49327 whole entry, the tested form may be a part): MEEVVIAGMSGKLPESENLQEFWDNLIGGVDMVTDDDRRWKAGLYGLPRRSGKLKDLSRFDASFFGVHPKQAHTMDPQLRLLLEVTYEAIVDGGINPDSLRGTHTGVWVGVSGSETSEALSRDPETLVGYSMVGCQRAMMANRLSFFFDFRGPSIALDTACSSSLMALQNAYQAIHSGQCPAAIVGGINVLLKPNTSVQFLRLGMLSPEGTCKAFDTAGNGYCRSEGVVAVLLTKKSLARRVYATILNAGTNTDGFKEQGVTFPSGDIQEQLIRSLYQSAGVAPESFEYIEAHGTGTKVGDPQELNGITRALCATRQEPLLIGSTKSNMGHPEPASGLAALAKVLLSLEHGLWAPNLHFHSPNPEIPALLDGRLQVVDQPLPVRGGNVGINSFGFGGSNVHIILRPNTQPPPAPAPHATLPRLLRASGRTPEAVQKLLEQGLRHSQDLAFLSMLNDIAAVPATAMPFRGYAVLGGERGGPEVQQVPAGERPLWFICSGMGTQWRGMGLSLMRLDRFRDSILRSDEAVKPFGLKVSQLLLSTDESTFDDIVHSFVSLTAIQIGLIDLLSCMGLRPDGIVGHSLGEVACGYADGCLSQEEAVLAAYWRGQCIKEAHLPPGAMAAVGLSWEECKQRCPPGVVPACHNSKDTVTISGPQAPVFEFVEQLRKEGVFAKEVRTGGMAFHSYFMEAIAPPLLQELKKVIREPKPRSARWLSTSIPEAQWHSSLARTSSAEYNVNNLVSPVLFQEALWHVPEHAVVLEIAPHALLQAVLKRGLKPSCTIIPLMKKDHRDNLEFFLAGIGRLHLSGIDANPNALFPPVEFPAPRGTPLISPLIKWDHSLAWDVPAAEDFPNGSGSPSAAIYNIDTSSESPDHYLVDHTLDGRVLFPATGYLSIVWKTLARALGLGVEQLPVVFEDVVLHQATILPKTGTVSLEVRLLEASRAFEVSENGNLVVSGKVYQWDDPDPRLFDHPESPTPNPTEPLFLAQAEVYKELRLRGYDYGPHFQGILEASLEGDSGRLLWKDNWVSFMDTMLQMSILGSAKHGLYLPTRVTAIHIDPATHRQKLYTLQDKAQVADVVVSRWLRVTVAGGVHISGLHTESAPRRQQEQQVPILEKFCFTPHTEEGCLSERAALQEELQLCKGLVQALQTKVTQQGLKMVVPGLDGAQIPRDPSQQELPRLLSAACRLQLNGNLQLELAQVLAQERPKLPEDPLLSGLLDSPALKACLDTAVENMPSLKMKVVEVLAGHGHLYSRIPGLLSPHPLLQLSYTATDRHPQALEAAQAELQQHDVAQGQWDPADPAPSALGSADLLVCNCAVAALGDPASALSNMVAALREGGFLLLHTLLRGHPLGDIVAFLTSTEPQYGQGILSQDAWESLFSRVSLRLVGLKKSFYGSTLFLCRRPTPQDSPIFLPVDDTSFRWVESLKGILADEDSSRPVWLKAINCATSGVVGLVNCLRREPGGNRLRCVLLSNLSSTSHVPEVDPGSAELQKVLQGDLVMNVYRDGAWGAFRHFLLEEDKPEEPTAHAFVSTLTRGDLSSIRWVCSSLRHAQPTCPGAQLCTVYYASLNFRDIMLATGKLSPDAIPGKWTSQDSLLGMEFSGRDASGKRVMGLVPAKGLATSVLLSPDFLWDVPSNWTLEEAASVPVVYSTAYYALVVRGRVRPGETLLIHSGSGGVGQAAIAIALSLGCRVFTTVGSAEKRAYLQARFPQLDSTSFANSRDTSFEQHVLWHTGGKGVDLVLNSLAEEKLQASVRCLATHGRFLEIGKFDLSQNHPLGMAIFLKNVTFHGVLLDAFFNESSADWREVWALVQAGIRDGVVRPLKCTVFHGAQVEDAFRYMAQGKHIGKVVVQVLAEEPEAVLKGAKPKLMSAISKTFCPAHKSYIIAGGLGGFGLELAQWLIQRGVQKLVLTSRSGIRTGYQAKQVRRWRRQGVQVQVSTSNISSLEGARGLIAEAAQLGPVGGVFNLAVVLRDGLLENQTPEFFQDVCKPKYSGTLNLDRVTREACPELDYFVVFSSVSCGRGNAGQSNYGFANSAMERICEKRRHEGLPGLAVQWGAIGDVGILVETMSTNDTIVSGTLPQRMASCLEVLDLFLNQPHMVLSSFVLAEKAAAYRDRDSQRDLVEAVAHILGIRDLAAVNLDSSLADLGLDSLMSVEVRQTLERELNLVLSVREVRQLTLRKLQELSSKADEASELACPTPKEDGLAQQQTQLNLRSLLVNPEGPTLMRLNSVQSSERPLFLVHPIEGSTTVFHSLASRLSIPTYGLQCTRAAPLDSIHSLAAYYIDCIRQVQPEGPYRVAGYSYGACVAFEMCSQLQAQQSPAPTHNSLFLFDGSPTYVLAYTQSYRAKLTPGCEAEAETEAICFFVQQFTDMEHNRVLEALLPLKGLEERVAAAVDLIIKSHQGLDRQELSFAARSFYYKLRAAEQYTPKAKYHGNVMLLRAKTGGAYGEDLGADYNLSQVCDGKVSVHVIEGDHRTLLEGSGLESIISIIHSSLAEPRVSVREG
# Sequence of Cytochrome P450 3A4 (P08684 whole entry): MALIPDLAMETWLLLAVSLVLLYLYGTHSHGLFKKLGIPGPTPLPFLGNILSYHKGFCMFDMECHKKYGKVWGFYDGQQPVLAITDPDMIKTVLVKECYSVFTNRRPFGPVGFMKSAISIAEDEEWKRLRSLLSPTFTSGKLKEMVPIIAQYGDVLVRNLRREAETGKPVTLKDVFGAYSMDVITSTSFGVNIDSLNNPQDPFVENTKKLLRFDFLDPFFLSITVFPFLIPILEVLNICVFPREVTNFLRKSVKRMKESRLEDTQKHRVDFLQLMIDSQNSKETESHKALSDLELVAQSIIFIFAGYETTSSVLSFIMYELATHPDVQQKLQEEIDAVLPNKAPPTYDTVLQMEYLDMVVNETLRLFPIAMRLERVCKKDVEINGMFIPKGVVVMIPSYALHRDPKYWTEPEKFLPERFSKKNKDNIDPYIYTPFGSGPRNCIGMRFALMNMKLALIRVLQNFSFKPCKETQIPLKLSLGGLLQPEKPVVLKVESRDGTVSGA
# Sequence of Cytochrome P450 2C9 (P11712 whole entry): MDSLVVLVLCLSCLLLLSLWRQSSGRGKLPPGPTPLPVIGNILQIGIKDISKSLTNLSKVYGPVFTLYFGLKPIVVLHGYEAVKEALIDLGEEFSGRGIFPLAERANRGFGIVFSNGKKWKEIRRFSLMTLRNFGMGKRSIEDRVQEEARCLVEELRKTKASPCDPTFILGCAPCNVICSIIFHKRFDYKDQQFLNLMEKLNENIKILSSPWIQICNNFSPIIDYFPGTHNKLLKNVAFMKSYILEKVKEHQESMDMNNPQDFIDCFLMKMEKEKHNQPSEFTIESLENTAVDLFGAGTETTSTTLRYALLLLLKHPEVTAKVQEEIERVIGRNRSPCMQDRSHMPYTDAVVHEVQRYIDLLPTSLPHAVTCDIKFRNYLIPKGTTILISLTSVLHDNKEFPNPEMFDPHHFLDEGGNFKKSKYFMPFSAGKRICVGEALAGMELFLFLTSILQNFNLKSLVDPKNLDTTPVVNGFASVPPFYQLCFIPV
# Sequence of Cytochrome P450 2C19 (P33261 whole entry): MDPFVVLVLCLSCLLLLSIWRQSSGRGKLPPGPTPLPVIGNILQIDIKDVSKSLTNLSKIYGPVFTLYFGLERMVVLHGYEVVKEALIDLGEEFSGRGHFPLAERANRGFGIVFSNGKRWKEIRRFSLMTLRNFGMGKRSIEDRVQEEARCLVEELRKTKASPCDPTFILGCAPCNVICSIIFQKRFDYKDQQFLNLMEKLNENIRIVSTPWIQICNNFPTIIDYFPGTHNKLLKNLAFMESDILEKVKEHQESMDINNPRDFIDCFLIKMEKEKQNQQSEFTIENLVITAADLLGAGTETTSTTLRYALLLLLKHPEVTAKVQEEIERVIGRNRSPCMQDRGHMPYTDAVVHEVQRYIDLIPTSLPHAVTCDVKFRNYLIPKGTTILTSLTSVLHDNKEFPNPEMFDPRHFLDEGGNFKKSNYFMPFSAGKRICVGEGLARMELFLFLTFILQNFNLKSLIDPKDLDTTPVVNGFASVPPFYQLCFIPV
smiles,measurement,setting,value
CCN(CC)CCSc1nc2cc(OC)ccc2[nH]1,EC50,[1],0.668 µM (active)
COCCCNC(=O)/C(C#N)=C/c1ccc(OCC(=O)O)c(OC)c1,IC50,[2],4.75 µM (active)
same,IC50,[3],2.19 µM (active)
NCCCCc1ccc2ccc3cccc4ccc1c2c34,CC50,Vero,22.6 µM (active)
same,IC50,[4],> 20 µM (inactive)
CCCn1c(-c2ccc(F)cc2)nc2c(N3CCN(C)CC3)nc(C)nc21,AC50,Cytochrome P450 3A4,12.6 µM (inconclusive)
N#Cc1c(-c2c(Cl)cccc2Cl)noc1/C=C/Nc1ccc(C(=O)O)cc1,EC50,[5],1.95 µM (active)
same,EC50,Streptokinase A,> 150 µM (not active)
same,IC50,cells,32.6 µM (active)
same,EC50,Streptococcus,17.5 µM (active)
COc1ccc(C)cc1NC(=O)c1cc(S(=O)(=O)N2CCCCC2)ccc1N1CCOCC1,IC50,[4],> 20 µM (inactive)
CCO/C(O)=C1/C(C)=NC(SC)=C(C#N)C1CC(C)C (configuration not stated),EC50,BJ [6],6.28 µM (inconclusive)
same,EC50,[7],2.97 µM (active)
same,EC50,BJ [8],7.78 µM (active)
same,EC50,BJ [9],35 µM (inconclusive)
COc1cc(/C=N/NC(=O)c2sc(N)c(C#N)c2C)ccc1O,IC50,[4],> 20 µM (inactive)
N=c1n(CCN2CCCCC2)c2ccccc2n1CC(O)c1ccc(Cl)c(Cl)c1 (configuration not stated),EC50,[10],4.29 µM (active)
same,EC50,[11],4.25 µM (active)
same,EC50,[12],> 60 µM (not active)
same,EC50,[13],2.08 µM (active)
Cc1cc(O)c(C(=O)/C=C/c2cccc([N+](=O)[O-])c2)c(=O)o1,CC50,Vero,22.6 µM (active)
CC(=O)N1N=C(c2ccc(Br)cc2)CC1c1cccc([N+](=O)[O-])c1 (configuration not stated),IC50,Fatty acid synthase [14],7.1 µM (active)
same,IC50,Fatty acid synthase [15],5.14 µM (active)
Nc1c(C(=O)NCc2ccco2)c2nc3ccccc3nc2n1Cc1ccc(F)cc1,EC50,[10],168 µM (active)
same,EC50,[11],348 µM (active)
CC(=N)/C(C#N)=C(/O)COc1ncnc2ccccc12,IC50,cells,1.77 µM (active)
O=C(CCCc1ccccc1)Nc1cccc([N+](=O)[O-])c1,IC50,Fatty acid synthase [14],7.58 µM (active)
same,IC50,Fatty acid synthase [15],3.7 µM (active)
COc1ccc([C@@H]2[C@@H]3C(=O)N(C(C)(C)C)C(=O)[C@@H]3[C@]3(Cc4ccc(Cl)cc4)C(=O)N(c4ccc(Br)cc4)C(=O)N23)cc1,IC50,Fatty acid synthase [14],11.5 µM (active)
same,IC50,Fatty acid synthase [15],11.2 µM (active)
O=[N+]([O-])c1ccc(N2CCNCC2)cc1NC1CC1,EC50,[1],0.168 µM (active)
same,AC50,Cytochrome P450 2C19,25.1 µM (inconclusive)
same,AC50,Cytochrome P450 2C9,15.8 µM (inconclusive)
COc1ccc(C(=O)C2CCCN(C3CSCCSC3)C2)cc1OC (configuration not stated),EC50,[1],0.944 µM (active)
N#Cc1c(-c2ccccc2)c(-c2ccccc2)nn(CC(=O)NNC(=O)Nc2ccc(Cl)cc2)c1=O,IC50,Fatty acid synthase [14],3.55 µM (active)
same,IC50,Fatty acid synthase [15],3.01 µM (active)
COc1ccc(C(C(=O)NC2CCCCC2)N(C(=O)CCl)c2ccccc2Cl)cc1 (configuration not stated),EC50,BJ [6],> 150 µM (not active)
same,EC50,[7],4.62 µM (inconclusive)
same,EC50,BJ [8],0.566 µM (inconclusive)
same,EC50,BJ [9],> 150 µM (not active)
CO[C@@H]1CN(C)C(=O)c2ccc(NC(=O)Nc3ccc(F)cc3)cc2OC[C@@H](C)N(C(=O)c2ccc(F)cc2)C[C@H]1C,AC50,[16],8.03 µM (active)
CCOC(=O)c1c(NC(=O)N/N=C/c2ccc(O)c(OC)c2)sc(C(C)=O)c1C,IC50,[2],1.17 µM (active)
CCCN(CCC)CCNC(=O)CCC(=O)Nc1ccc2nc(N3CCOCC3)cc(C)c2c1,EC50,[1],0.473 µM (active)
CCCCNC(=S)N(C)/N=C/c1ccc(OCC(=O)Nc2c(C)cc(C)cc2C)c(OC)c1,EC50,[10],66.4 µM (active)
same,EC50,[11],95.1 µM (active)
CCCOc1ccc(/C=N/NC(=O)CSCc2ccc([N+](=O)[O-])cc2)cc1OCC,IC50,[4],20 µM (active)
COc1ccc(C[C@H]2CN3C(=NC[C@@H]3Cc3ccc(O)cc3)N2CCNC(=O)c2ccc(C)c(Br)c2)cc1,IC50,[4],> 20 µM (inactive)
CN(CCc1ccccn1)C(=O)CC1C(=O)NCCN1Cc1ccccc1C(F)(F)F (configuration not stated),EC50,[1],5.96 µM (active)
CCOC(=O)c1c(C)cc(O)c(C=O)c1O [ETHYL HEMATOMMATE],AC50,Cytochrome P450 3A4,39.8 µM (inconclusive)
CC(C)c1ccc(CCNC(=O)c2ccc([N+](=O)[O-])cc2)cc1,IC50,Fatty acid synthase [14],1.51 µM (active)
same,IC50,Fatty acid synthase [15],1.71 µM (active)
C=CCn1c(/N=C/c2ccc(N(C)C)cc2)nc2ccccc21,EC50,[1],6.68 µM (active)
C/C=C/c1ccc2c(c1)OCO2 [ISOSAFROLE],AC50,Cytochrome P450 3A4,25.1 µM (inconclusive)
O=C(C=Cc1ccccc1)c1cccs1,CC50,Vero,> 25 µM (active)
c1ccc(-c2nn3c(Cn4nnc5ccccc54)nnc3s2)cc1,IC50,cells,> 25 µM (active)
CC(C)c1n[nH]c2c1C(C1C=CCCC1)C(C#N)=C(N)O2 (configuration not stated),CC50,Vero,21.9 µM (active)
COc1ccc(C(=O)NCC(=O)N/N=C/c2c(C)[nH]c3ccccc23)cc1OC,IC50,cells,7.07 µM (active)
Clc1ccc(C2[C@H]3CN(Cc4ccc(-c5ccccc5)cc4)[C@H](c4ccccc4)C34CC2(c2cccnc2)C4)cn1 (some centres not stated),AC50,Cytochrome P450 3A4,15.8 µM (inconclusive)
O=C(Nc1ccc(F)cc1)N1CC(=O)N2[C@H](C1)[C@@H](c1ccc(C#Cc3ccc(F)cc3)cc1)[C@@H]2CO,AC50,[16],4.49 µM (active)
CN(C)c1ccc(/C=C/C(=O)c2ccccc2)cc1[N+](=O)[O-],EC50,[10],8.26 µM (active)
same,EC50,[11],7.13 µM (active)
CN1C[C@@H]2C(c3ccccc3)C3(c4ccc(C#N)cc4)CC2(C3)[C@H]1c1ccccc1 (some centres not stated),AC50,Cytochrome P450 3A4,25.1 µM (inconclusive)
COc1ccc2nc(NC(=O)c3ccccc3[N+](=O)[O-])sc2c1,IC50,cells,9.33 µM (active)
same,CC50,[17],45.6 µM (active)
O=C(Nc1ccn(CCCNCc2cccc3ccccc23)c(=O)n1)OCc1ccccc1,CC50,Vero,> 25 µM (active)
Cc1ccccc1C(=O)Nc1nc(-c2cccnc2)cs1,IC50,[2],> 54 µM (active)
NC(=S)N=Nc1c(O)[nH]c2ccccc12,IC50,[4],> 20 µM (inactive)
